# Measured values published in ChEMBL document CHEMBL4007507 (J Med Chem, 2017).
# Activity calls are given as the source filed them. No cut-off for these calls is given here.
# Legend:
# SJSA-1 [1] = assay: cells; details: Homo sapiens
# SJSA-1 [2] = details: Homo sapiens, 30 mg/kg
# in vivo [3] = details: rat, po, 25 mg/kg
# in vivo [4] = details: rat, po, 25 mg/kg; remark: listed apart in the source
# in vivo [5] = details: rat, iv, 10 mg/kg
# in vivo [6] = details: rat, iv, 10 mg/kg; remark: listed apart in the source
# in vivo [7] = details: rat, iv, 10 mg/kg; remark: listed apart in the source
# SJSA-1 [8] = details: Homo sapiens, 50 mg/kg
# in vivo [9] = details: rat, po, 25 mg/kg; remark: listed apart in the source
# RS4-11 [10] = details: Homo sapiens
# SAOS-2 = assay: cells; details: Homo sapiens
# LNCaP = assay: cells; details: Homo sapiens
# PC-3 = assay: cells; details: Homo sapiens
# HCT-116 [11] = assay: cells; details: Homo sapiens
# HCT-116 [12] = assay: cells; details: Homo sapiens; remark: listed apart in the source
# in vivo [13] = details: rat, iv, 5 mg/kg
# in vivo [14] = details: rat, iv, 5 mg/kg; remark: listed apart in the source
# in vivo [15] = details: rat, iv, 5 mg/kg; remark: listed apart in the source
# physchem [16] = details: 1:1 CH3CN/H2O solution
# physchem [17] = details: 1:1 MeOH/H2O solution
# physchem [18] = details: cell culture media
# SJSA-1 [19] = details: Homo sapiens, 100 mg/kg
# RS4-11 [20] = assay: cells; details: Homo sapiens
# SJSA-1 [21] = details: Homo sapiens
smiles,measurement,setting,value
O=C(O)CCCNC(=O)[C@@H]1NC2(CCCCC2)[C@@]2(C(=O)Nc3cc(Cl)ccc32)[C@H]1c1cccc(Cl)c1F,IC50,SJSA-1 [1],1400 nM
CN1[C@@H](C(=O)NC23CCC(C(=O)O)(CC2)CC3)[C@H](c2cccc(Cl)c2F)[C@]2(C(=O)Nc3cc(Cl)ccc32)C12CCCCC2,TGI,SJSA-1 [2],Active
same,AUC,in vivo [3],35200 ng·h/mL
same,half-life,in vivo [4],3.9 h
same,AUC,in vivo [5],28800 ng·h/mL
same,clearance,in vivo [6],5.87 mL/min/kg
same,Vd,in vivo [7],1.1 L/kg
O=C(O)c1ccc(NC(=O)[C@@H]2NC3(CCCCC3)[C@@]3(C(=O)Nc4cc(Cl)ccc43)[C@H]2c2cccc(Cl)c2F)cc1F,IC50,SJSA-1 [1],190 nM
O=C(NC1CCS(=O)(=O)CC1)[C@@H]1NC2(CCCCC2)[C@@]2(C(=O)Nc3cc(Cl)ccc32)[C@H]1c1cccc(Cl)c1F,IC50,SJSA-1 [1],540 nM
O=C(N[C@H]1C[C@H](C(=O)O)C1)[C@@H]1NC2(CCCCC2)[C@@]2(C(=O)Nc3cc(Cl)ccc32)[C@H]1c1cccc(Cl)c1F,IC50,SJSA-1 [1],220 nM
O=C(NC12CCC(C(=O)O)(CC1)CC2)[C@@H]1NC2(CCC(F)(F)CC2)[C@@]2(C(=O)Nc3cc(Cl)ccc32)[C@H]1c1cccc(Cl)c1F,IC50,SJSA-1 [1],170 nM
O=C(O)c1ccc(NC(=O)[C@@H]2NC3(CCCCC3)[C@@]3(C(=O)Nc4cc(Cl)ccc43)[C@H]2c2cccc(Cl)c2F)cn1,IC50,SJSA-1 [1],240 nM
O=C(O)Cc1ccc(NC(=O)[C@@H]2NC3(CCCCC3)[C@@]3(C(=O)Nc4cc(Cl)ccc43)[C@H]2c2cccc(Cl)c2F)cc1,IC50,SJSA-1 [1],760 nM
COc1cc(NC(=O)[C@@H]2NC3(CCCCC3)[C@@]3(C(=O)Nc4cc(Cl)ccc43)[C@H]2c2cccc(Cl)c2F)ccc1C(=O)O,IC50,SJSA-1 [1],120 nM
CS(=O)(=O)NC(=O)[C@@H]1NC2(CCCCC2)[C@@]2(C(=O)Nc3cc(Cl)ccc32)[C@H]1c1cccc(Cl)c1F,IC50,SJSA-1 [1],8900 nM
Cc1nnc([C@H]2[C@H](c3cccc(Cl)c3F)[C@]3(C(=O)Nc4cc(Cl)ccc43)C3(CCCCC3)N2C)s1,IC50,SJSA-1 [1],3000 nM
Cc1oc([C@H]2[C@H](c3cccc(Cl)c3F)[C@]3(C(=O)Nc4cc(Cl)ccc43)C3(CCCCC3)N2C)nc1C(=O)O,IC50,SJSA-1 [1],6000 nM
O=C(O)c1cccc(NC(=O)[C@@H]2NC3(CCCCC3)[C@@]3(C(=O)Nc4cc(Cl)ccc43)[C@H]2c2cccc(Cl)c2F)c1,IC50,SJSA-1 [1],760 nM
CC1(C)CCC2(CC1)N[C@@H](C(=O)N[C@H]1CC[C@H](O)CC1)[C@H](c1cccc(Cl)c1F)[C@]21C(=O)Nc2cc(Cl)ccc21,IC50,SJSA-1 [1],48 nM
O=C(N[C@H]1CC[C@H](C(=O)O)CC1)[C@@H]1NC2(CCCCC2)[C@@]2(C(=O)Nc3cc(Cl)ccc32)[C@H]1c1cccc(Cl)c1F,TGI,SJSA-1 [8],Active
same,IC50,SJSA-1 [1],150 nM
COc1cc(C(=O)O)ccc1NC(=O)[C@@H]1NC2(CCCCC2)[C@@]2(C(=O)Nc3cc(Cl)ccc32)[C@H]1c1cccc(Cl)c1F,IC50,SJSA-1 [1],61 nM
CC(=O)N1CC(NC(=O)[C@@H]2NC3(CCCCC3)[C@@]3(C(=O)Nc4cc(Cl)ccc43)[C@H]2c2cccc(Cl)c2F)C1,IC50,SJSA-1 [1],240 nM
O=C(NC12CC(C(=O)O)(C1)C2)[C@@H]1NC2(CCCCC2)[C@@]2(C(=O)Nc3cc(Cl)ccc32)[C@H]1c1cccc(Cl)c1F,IC50,SJSA-1 [1],540 nM
O=C(O)c1ccc(NC(=O)[C@@H]2NC3(CCCCC3)[C@@]3(C(=O)Nc4cc(Cl)ccc43)[C@H]2c2cccc(Cl)c2F)c(F)c1,IC50,SJSA-1 [1],230 nM
CS(=O)(=O)NC(=O)c1ccc(NC(=O)[C@@H]2NC3(CCCCC3)[C@@]3(C(=O)Nc4cc(Cl)ccc43)[C@H]2c2cccc(Cl)c2F)cc1,IC50,SJSA-1 [1],5800 nM
NS(=O)(=O)c1ccc(NC(=O)[C@@H]2NC3(CCCCC3)[C@@]3(C(=O)Nc4cc(Cl)ccc43)[C@H]2c2cccc(Cl)c2F)cc1,IC50,SJSA-1 [1],11200 nM
O=C(NC[C@H]1CC[C@H](C(=O)O)CC1)[C@@H]1NC2(CCCCC2)[C@@]2(C(=O)Nc3cc(Cl)ccc32)[C@H]1c1cccc(Cl)c1F,IC50,SJSA-1 [1],1900 nM
CN1[C@@H](c2nc(CC(=O)O)cs2)[C@H](c2cccc(Cl)c2F)[C@]2(C(=O)Nc3cc(Cl)ccc32)C12CCCCC2,IC50,SJSA-1 [1],2690 nM
CN1[C@@H](c2nc(C(=O)O)cs2)[C@H](c2cccc(Cl)c2F)[C@]2(C(=O)Nc3cc(Cl)ccc32)C12CCCCC2,IC50,SJSA-1 [1],> 10000 nM
Cc1noc([C@H]2[C@H](c3cccc(Cl)c3F)[C@]3(C(=O)Nc4cc(Cl)ccc43)C3(CCCCC3)N2C)n1,IC50,SJSA-1 [1],12100 nM
O=C(O)c1ccc(NC(=O)[C@@H]2NC3(CCCCC3)[C@@]3(C(=O)Nc4cc(Cl)ccc43)[C@H]2c2cccc(Cl)c2F)cc1,TGI,SJSA-1 [8],Active
same,Cmax,in vivo [9],1550 ng/mL
same,AUC,in vivo [3],6800 ng·h/mL
same,half-life,in vivo [4],4 h
same,AUC,in vivo [5],8630 ng·h/mL
same,clearance,in vivo [6],19.3 mL/min/kg
same,Vd,in vivo [7],2.14 L/kg
COc1cc(C(N)=O)ccc1NC(=O)[C@@H]1NC2(CCCCC2)[C@@]2(C(=O)Nc3cc(Cl)ccc32)[C@H]1c1cccc(Cl)c1F,IC50,SJSA-1 [1],120 nM
CCN1[C@@H](C(=O)NC23CCC(C(=O)O)(CC2)CC3)[C@H](c2cccc(Cl)c2F)[C@]2(C(=O)Nc3cc(Cl)ccc32)C12CCCCC2 [ALRIZOMADLIN],TGI,SJSA-1 [2],Active
same,TGI,RS4-11 [10],Dose-dependent effect
same,IC50,SJSA-1 [1],60 nM
same,IC50,SAOS-2,22700 nM
same,IC50,LNCaP,18 nM
same,IC50,PC-3,22000 nM
same,IC50,HCT-116 [11],104 nM
same,IC50,HCT-116 [12],8000 nM
same,AUC,in vivo [3],39100 ng·h/mL
same,half-life,in vivo [4],4.6 h
same,AUC,in vivo [5],38300 ng·h/mL
same,clearance,in vivo [6],4.28 mL/min/kg
same,Vd,in vivo [7],1.25 L/kg
O=C(O)c1ccc(NC(=O)[C@@H]2NC3(CCCCC3)[C@@]3(C(=O)Nc4cc(Cl)ccc43)[C@H]2c2cccc(Cl)c2F)o1,IC50,SJSA-1 [1],6200 nM
O=C(N[C@H]1CC[C@@H](C(=O)O)CC1)[C@@H]1NC2(CCCCC2)[C@@]2(C(=O)Nc3cc(Cl)ccc32)[C@H]1c1cccc(Cl)c1F,IC50,SJSA-1 [1],1740 nM
Cc1nnc([C@H]2[C@H](c3cccc(Cl)c3F)[C@]3(C(=O)Nc4cc(Cl)ccc43)C3(CCCCC3)N2C)o1,IC50,SJSA-1 [1],5000 nM
CC(C)(C)C[C@@H]1N[C@@H](C(=O)N[C@H]2CC[C@H](O)CC2)[C@H](c2cccc(Cl)c2F)[C@]12C(=O)Nc1cc(Cl)ccc12 [SAR-405838],TGI,SJSA-1 [8],Active
same,half-life,in vivo [4],1.6 h
same,AUC,in vivo [13],4630 ng·h/mL
same,clearance,in vivo [14],17.2 mL/min/kg
same,Vd,in vivo [15],2.98 L/kg
same,remaining at 168 h,physchem [16],93 to 96%
same,remaining at 168 h,physchem [17],93 to 96%
same,remaining at 168 h,physchem [18],93 to 96%
CN1[C@@H](c2nc(C(=O)O)co2)[C@H](c2cccc(Cl)c2F)[C@]2(C(=O)Nc3cc(Cl)ccc32)C12CCCCC2,IC50,SJSA-1 [1],> 10000 nM
O=C(NC12CCC(C(=O)O)(CC1)CC2)[C@@H]1NC2(CCCCC2)[C@@]2(C(=O)Nc3cc(Cl)ccc32)[C@H]1c1cccc(Cl)c1F,TGI,SJSA-1 [8],Active
same,TGI,SJSA-1 [19],Active
same,IC50,SJSA-1 [1],89 nM
same,IC50,SAOS-2,26700 nM
same,IC50,LNCaP,36 nM
same,IC50,RS4-11 [20],62 nM
same,IC50,PC-3,12300 nM
same,IC50,HCT-116 [11],137 nM
same,IC50,HCT-116 [12],14000 nM
same,half-life,in vivo [4],4.3 h
same,AUC,in vivo [5],82200 ng·h/mL
same,clearance,in vivo [6],1.98 mL/min/kg
same,Vd,in vivo [7],0.734 L/kg
CS(=O)(=O)c1ccc(NC(=O)[C@@H]2NC3(CCCCC3)[C@@]3(C(=O)Nc4cc(Cl)ccc43)[C@H]2c2cccc(Cl)c2F)cc1,IC50,SJSA-1 [1],140 nM
CC1(C)CCC2(CC1)N[C@@H](C(=O)Nc1ccc(C(=O)O)cc1)[C@H](c1cccc(Cl)c1F)[C@]21C(=O)Nc2cc(Cl)ccc21,TGI,SJSA-1 [8],Active
same,TGI,SJSA-1 [21],Dose-dependent effect
same,IC50,SJSA-1 [1],13 nM
same,Cmax,in vivo [9],968 ng/mL
same,AUC,in vivo [3],10200 ng·h/mL
same,half-life,in vivo [4],4.5 h
same,AUC,in vivo [5],14800 ng·h/mL
same,clearance,in vivo [6],11.5 mL/min/kg
same,Vd,in vivo [7],2.45 L/kg
CS(=O)(=O)NC(=O)C12CCC(NC(=O)[C@@H]3NC4(CCCCC4)[C@@]4(C(=O)Nc5cc(Cl)ccc54)[C@H]3c3cccc(Cl)c3F)(CC1)CC2,IC50,SJSA-1 [1],370 nM
